The source of these data is ChEMBL document CHEMBL2413070, “Histone Deacetylase 4 (HDAC4) Inhibitors: A Promising Treatment for Huntington's Disease” (ACS Med Chem Lett, 2013).

One assay concerns the target Histone deacetylase 1 (Homo sapiens, UniProt Q13547). The assay can be described thus: Inhibition of recombinant full length human HDAC-1 expressed in baculovirus expression system using acetyl-Gly-Ala-Lys(acetyl)-AMC as substrate after 2 hrs by fluorescence microplate reader analysis.
In assay [1] the target is T1, Protein deacetylase HDAC6 (Homo sapiens, UniProt Q9UBN7).
T1 sequence (Q9UBN7 whole entry): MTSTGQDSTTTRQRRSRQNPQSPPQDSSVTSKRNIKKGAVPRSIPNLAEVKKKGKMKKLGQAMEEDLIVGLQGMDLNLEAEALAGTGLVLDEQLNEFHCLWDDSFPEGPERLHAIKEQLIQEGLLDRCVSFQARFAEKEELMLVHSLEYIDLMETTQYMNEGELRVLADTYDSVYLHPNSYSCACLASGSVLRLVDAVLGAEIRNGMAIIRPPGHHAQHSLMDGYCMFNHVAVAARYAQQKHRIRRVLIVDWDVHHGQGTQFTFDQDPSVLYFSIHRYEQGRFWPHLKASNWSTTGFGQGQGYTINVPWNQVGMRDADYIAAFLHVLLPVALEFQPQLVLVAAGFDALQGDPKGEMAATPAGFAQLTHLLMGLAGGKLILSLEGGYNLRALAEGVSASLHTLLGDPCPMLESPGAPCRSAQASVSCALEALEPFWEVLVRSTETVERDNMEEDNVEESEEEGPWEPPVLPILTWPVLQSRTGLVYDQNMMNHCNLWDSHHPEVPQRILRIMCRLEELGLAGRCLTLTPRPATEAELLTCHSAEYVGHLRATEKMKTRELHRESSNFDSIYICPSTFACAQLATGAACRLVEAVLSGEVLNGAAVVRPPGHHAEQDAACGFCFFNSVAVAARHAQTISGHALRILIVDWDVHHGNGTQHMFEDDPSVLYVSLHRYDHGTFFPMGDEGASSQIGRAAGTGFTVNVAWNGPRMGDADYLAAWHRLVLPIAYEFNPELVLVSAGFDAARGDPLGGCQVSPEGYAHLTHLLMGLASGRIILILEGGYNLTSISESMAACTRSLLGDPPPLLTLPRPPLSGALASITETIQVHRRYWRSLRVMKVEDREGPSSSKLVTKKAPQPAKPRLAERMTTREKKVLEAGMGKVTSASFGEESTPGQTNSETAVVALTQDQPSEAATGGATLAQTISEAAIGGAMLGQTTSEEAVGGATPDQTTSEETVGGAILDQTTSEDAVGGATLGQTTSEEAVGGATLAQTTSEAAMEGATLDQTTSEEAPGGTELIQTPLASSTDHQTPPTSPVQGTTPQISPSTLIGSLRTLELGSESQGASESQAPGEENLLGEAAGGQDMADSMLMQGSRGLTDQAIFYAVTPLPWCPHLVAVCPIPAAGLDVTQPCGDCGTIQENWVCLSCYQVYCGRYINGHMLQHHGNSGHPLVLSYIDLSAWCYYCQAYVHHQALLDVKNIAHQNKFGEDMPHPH
The assay is described as follows: Inhibition of recombinant full length human HDAC-6 expressed in baculovirus expression system using acetyl-Gly-Ala-Lys(acetyl)-AMC as substrate after 2 hrs by fluorescence microplate reader analysis.

pIC50: −log10 of the molar value.

Chain of Histone deacetylase 1 (Q13547 whole entry): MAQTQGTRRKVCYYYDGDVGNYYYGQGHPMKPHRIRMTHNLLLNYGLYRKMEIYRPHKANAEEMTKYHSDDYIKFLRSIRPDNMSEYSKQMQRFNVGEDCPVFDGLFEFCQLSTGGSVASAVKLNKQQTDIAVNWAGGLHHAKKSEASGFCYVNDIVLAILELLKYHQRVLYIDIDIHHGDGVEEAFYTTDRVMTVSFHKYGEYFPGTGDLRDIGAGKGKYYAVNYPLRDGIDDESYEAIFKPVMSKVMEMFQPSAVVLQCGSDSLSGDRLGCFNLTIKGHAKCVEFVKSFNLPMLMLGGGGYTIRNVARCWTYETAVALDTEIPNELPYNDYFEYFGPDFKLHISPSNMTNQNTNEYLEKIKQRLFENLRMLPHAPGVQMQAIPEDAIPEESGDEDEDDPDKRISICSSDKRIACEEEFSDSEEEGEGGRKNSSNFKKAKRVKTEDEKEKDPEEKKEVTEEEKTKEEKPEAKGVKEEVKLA

As to `CCN(CC)C[C@@H](C)NC(=O)c1ccc(-c2noc(C(F)(F)F)n2)nc1`, the negative logarithm of the IC50 (pIC50) (on Histone deacetylase 1; in assay [1]) was under 5.00 in each case.

`C[C@H](CN(C)Cc1ccccc1)NC(=O)c1ccc(-c2noc(C(F)(F)F)n2)nc1`: the pIC50 (at Histone deacetylase 1; in assay [1]) was under 5.00 in each case.
